In one experiment the test system is CD8 gene expression. The experiment in a line: CD8 gene expression in MMBM (Example 12). It is filed as cell-based, human. The protocol: (§1) Bone marrow mononuclear cells (BMMCs) were collected from MM patients after obtaining IRB approval. Single-cell suspensions were prepared from human MM LAGλ-1A xenografts which had been grown in severe combined immunodeficient mice. HS-5 stromal and SUP-T1 T cells were purchased from ATCC. The cells were cultured and treated with or without RUX and then subjected to qRT-PCR, flow cytometric analysis, and western blot analysis. For qRT-PCR, total RNA was extracted and applied to cDNA synthesis, followed by qPCR. Gene expression was analyzed in MM BMMCs alone or co-cultured with stromal cells or T cells with or without Rux treatment (1 μM) in vitro.
(§2) Next, we tested whether B7-H3 blockade by Rux could potentially restore exhausted T cell activity against myeloma cells in MMBM.

The subject of a further experiment is PD-L1 protein expression. The experiment in a line: PD-L1 protein expression on MM cells by flow cytometry, BMMCs co-cultured with HS-5 stromal cells. As to conditions: fresh MM BMMCs co-cultured with HS-5, 72 hours. It is filed as cell-based, human. How it is done:
To investigate the effects of RUX on PD-L1 protein expression on myeloma cell membranes, fresh MM BMMCs were isolated from MM patients and co-cultured with stromal cells (HS-5, ATCC). After 72 hours, cells were fixed using 2% paraformaldehyde for 30 minutes on ice and washed with PBS twice. The cells were stained with anti-PD-L1 antibody conjugated with PE and anti-CD138 antibody conjugated with FITC antibody for 2 hrs and analyzed by flow cytometry using a Beckman Coulter FC500 cytometer with Cytomics CXP software (Beckman Coulter, Fullerton, Calif.).

The subject of experiment [1] is PD-1 expression on T-cells. The experiment in a line: PD-1 expression on T-cells (Example 11). It is filed as cell-based.
In the next experiment the test system is IL-2 gene expression. The experiment in a line: IL-2 gene expression in MMBM (Example 12). It is filed as cell-based, human. How it is done: as §1, §2
Another experiment relates to B7-H3 gene expression. The experiment in a line: B7-H3 gene expression (qPCR) in MM BMMCs, U266 cells and THP-1 monocytes. It is filed as cell-based, human. The conditions noted are these: RUX 1 μM. How it is done:
We further examined BMMCs from two MM patients (#s 2188 and 2935) treated with RUX (1 μM) for 24 hours. RUX reduced B7-H3 gene expression as measured using qPCR in BMMCs (FIG. 7B). We also analyzed BMMCs co-cultured with stromal cells. B7-H3 gene expression was increased 16-fold in BMMCs after these cells were co-cultured with stromal cells. […] We further determined the effect of RUX (1 μM) on gene expression of B7-H3 in the MM cell line U266 co-cultured with THP-1 monocytes (T) after 48 hours. RUX at 1 μM reduced B7-H3 expression in both U266 MM cells and THP-1 monocytes, cultured alone or co-cultured, compared to cell cultures not treated with RUX (FIG. 7D).
In general terms: Real-time PCR tracks product formation cycle by cycle.

Experiment [2] has as its system PD-L2 gene expression. As to conditions: MM patient; after 4 months of treatment vs before treatment; qPCR. The text has this:
(§3) A second sample of BMMCs was collected after treatment with ruxolitinib, methylprednisolone, and lenalidomide.

Experiment [3] concerns PD-L1 gene expression. The conditions noted are these: MM patient; after 4 months of treatment vs before treatment; qPCR.
Description: as §3

Experiment [4] deals with PD-L1 gene expression. Put plainly: PD-L1 gene expression (qPCR) in MM BMMCs co-cultured with THP-1 monocytes. It is filed as cell-based, human. As to conditions: BMMCs from MM patient #3041 co-cultured with THP-1 monocytes, RUX 1 μM, 48 hours. The protocol: (§4) MM patient #3041 bone marrow mononuclear cells were co-cultured with THP-1 monocytes with or without RUX (from […] to 10 μM) for 48 hours.
(§5) Next, we investigated the effects of ruxolitinib (RUX) on PD-L1 and PD-L2 gene expression in MM bone marrow mononuclear cells (BMMCs) co-cultured with THP-1 monocytes. THP-1 monocytes co-cultured with primary BMMCs from MM patient #3041 were grown in the presence or absence of RUX (1 μM).

Experiment [5] relates to PD-L2 gene expression. Put plainly: PD-L2 gene expression (qPCR) in MM BMMCs co-cultured with THP-1 monocytes. It is filed as cell-based, human. As to conditions: BMMCs from MM patient #3041 co-cultured with THP-1 monocytes, RUX 1 μM, 48 hours. The protocol:
as §4, §5

A further experiment concerns MM cell. The experiment in a line: MM cell apoptosis in the presence of IL-2 stimulated T-cells (Example 11). It is filed as cell-based, human. As to conditions: RUX 0-5 μM; antibodies 0-10 μg/ml; concentration dependent. The protocol:
We further investigated the effects of RUX on PD-L1 and PD-L2 expression in primary and stromal cells from MM patients' BM samples in vitro. […] We then determined whether RUX can augment the anti-MM effects of T-cells in vitro. […] To evaluate the efficacy of drugs in vivo, severe combined immune deficient mice implanted with the human MM xenograft LAGκ-2 were treated with RUX (30 mg/kg). […] In contrast, RUX had no effect on PD-1 expression on T-cells.

In a further experiment the test system is MM cells. Put plainly: Dead MM cells by Trypan blue staining, BMMCs co-cultured with HS-5 stromal cells. It is filed as cell-based, human. As to conditions: MM BMMCs co-cultured with HS-5.
The subject of experiment [6] is Tumor cells from the LAGκ-1A human MM xenograft. The experiment in a line: Annexin V apoptosis assay of LAGκ-1A myeloma tumor cells with or without IL-2 pre-treated T-cells. It is filed as cell-based. As to conditions: in the absence of T-cells. The protocol:
T-cells (SUP-T1, ATCC) were pre-treated with IL-2 (20 ng/ml) for 24 hours. In the RUX at 1 μM with anti-PD-L1 group, the antibody concentrations were varied as indicated on the x-axis but the RUX was tested at a fixed concentration (1 μM). For the anti-PD-L1 at 5 mg/mL with RUX group, the RUX concentrations were varied as on the x-axis but the anti-PD-L1 antibody was evaluated at a fixed concentration (5 mg/mL). Tumor cells from the LAGκ-1A human MM xenograft were single-cell suspended and co-cultured with T cells treated with either RUX (1 μM) and anti-PD-L1 antibody or RUX alone for 72 hours. Tumor cell apoptosis was measured using the Annexin V assay per the manufacturer's protocol (Biovision) followed with flow cytometric analysis (FC-500 cytometer using Cytometric CXP software, both Beckman Coulter).
T-cells were pre-treated with IL-2 (20 ng/ml) for 24 hours. […] For the anti-PD-1 at 5 mg/mL with RUX group, the RUX concentrations were varied as on the x-axis but the anti-PD-1 antibody was evaluated at a fixed concentration (5 mg/mL). […] Tumor cell apoptosis was measured using the Annexin V assay per the manufacturer's protocol (Biovision) followed with flow cytometric analysis (FC-500 cytometer using Cytometric CXP software, both Beckman Coulter). […]

“Also recorded” adds a separate entry of the source.

With `N#CC[C@H](C1CCCC1)n1cc(-c2ncnc3[nH]ccc23)cn1` [RUX, ruxolitinib], in the experiment with CD8 gene expression (SUP-T1), the “CD8 gene expression in BM cocultured with T cells” value is given as “elevated”. Also, the “CD8 gene expression in MMBM with lower plasma percentages” value with CD8 gene expression (plasma cell percentage <30%) is recorded as “increase”. In addition, in the experiment with PD-L1 protein expression, the “PD-L1-expressing MM tumor cells” value was “reduced in a concentration dependent manner”. Further, the “PD-1 expression on T-cells” value in experiment [1] is reported as “no effect”. In addition, the “IL-2 gene expression in BM cocultured with T cells” value in the experiment on IL-2 gene expression (SUP-T1) is “elevated”. Moreover, in the experiment with IL-2 gene expression (plasma cell percentage <30%), the “IL-2 gene expression in MMBM with lower plasma percentages” value is given as “increase”. Also, in the experiment with IL-2 gene expression (plasma cell percentage >70%), the “increase of IL-2 gene expression in MMBM with higher plasma cell percentages” value was “not”. Besides, in the experiment on B7-H3 gene expression (BMMCs from two MM patients (#2188, #2935), 24 hours, qPCR), the “B7-H3 gene expression in BMMCs” value is on record as “reduced; also recorded: down-regulates”. In addition, the “B7-H3 expression in BMMCs co-cultured with stromal cells” value in the experiment with B7-H3 gene expression was “markedly reduced; also recorded: decreases”. The “B7-H3 expression in U266 MM cells” value with B7-H3 gene expression (cultured alone or co-cultured with THP-1, 48 hours) was “reduces”. For the same compound, the “B7-H3 expression in THP-1 monocytes” value with B7-H3 gene expression (cultured alone or co-cultured with U266, 48 hours) is recorded as “reduced”. For the same compound, the “PD-L2 gene expression in BMMCs” value in the experiment with PD-L2 gene expression [2] is “down-regulates”. Also, the “PD-L1 gene expression in BMMCs” value in the experiment on PD-L1 gene expression [3] was “down-regulates”. The “PD-L1 gene expression in MM BMMCs” value in the experiment with PD-L1 gene expression [4] was “marked decrease; also recorded: inhibits”. In the experiment with PD-L2 gene expression [5], the “PD-L2 gene expression in MM BMMCs” value was “marked decrease; also recorded: inhibits”. Besides, the “MM cell apoptosis in the presence of IL-2 stimulated T-cells” value in the experiment on MM cell was “increased”. Also, in the experiment on MM cells, the “percentage of dead MM cells” value is reported as “increased in a concentration dependent fashion”. Also, the “apoptosis of LAGκ-1A cells, single-agent treatment” value in experiment [6] is recorded as “does not lead to significant apoptosis”.

Values taken from patent US20220000872A1, “METHOD OF ENHANCING IMMUNE-BASED THERAPY” (OncoTracker, Inc., priority 2018, published 2022).
